The target in experiment [1] is T1, human recombinant Glo-I enzyme (rhGlo-I) (Homo sapiens, UniProt Q04760).
T1 construct: N-terminal Met and 6-His tag (N); purchased R&D Systems; host or cells: E. coli
T1 sequence (Q04760 2-184 limits assumed): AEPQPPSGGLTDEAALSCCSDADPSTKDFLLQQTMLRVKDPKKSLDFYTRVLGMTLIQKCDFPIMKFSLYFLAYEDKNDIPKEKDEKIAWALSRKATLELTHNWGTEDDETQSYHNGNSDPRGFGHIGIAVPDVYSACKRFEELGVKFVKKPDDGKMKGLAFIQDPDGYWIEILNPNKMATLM
The experiment in a line: Glyoxalase-I (Glo-I) enzyme inhibition assay. Conditions: for Maximum (descriptive statistics of enzyme inhibition): highest mean inhibition over the tested concentrations; for Maximum (descriptive statistics of enzyme inhibition) / Minimum (descriptive statistics of enzyme inhibition): in % (unit assumed); for IC50: human recombinant Glo-I, triplicates, read-out: IC50 µM ± SD; for Minimum (descriptive statistics of enzyme inhibition): lowest mean inhibition over the tested concentrations. The experiment is classed as biochemical. An outline of the steps:
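Recombinant human Glo-I (50 µM) was combined with test compounds (from 10 mM DMSO stocks, diluted in 0.1 M sodium phosphate, pH 7–7.2) and a pre-incubated glutathione/methylglyoxal substrate mix (100 mM each stock). Absorbance at 240 nm was followed for 200 s at 37°C, in triplicate.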

Experiment [2] has as its system SW620 colorectal cancer cell line. The experiment can be described thus: SRB cytotoxicity assay, SW620. The experiment is classed as cell-based. The conditions noted are these: Homo sapiens, SW-620, 72 h incubation, n = 12, read-out: Cytotoxicity (as of %Control) IC50 value SW620. As to the method: (§1) The cancer cell lines were cultured in DMEM supplemented with 10% FBS (Bio Whittaker, Verviers, Belgium), HEPES Buffer (10 mM), gentamicin (50 µg/mL), L-glutamine (100 μg/mL), streptomycin ([…]), penicillin (100 µg/mL), and 4-(2-hydroxyethyl)-1-piperazineethanesulfonic acid (HEPES) Buffer (Sigma, St. Luis, MO, USA). The Sulforhodamine B used was obtained from Santa Cruz Biotechnology, Inc. in Texas, USA. […] Periodontal ligament fibroblasts (PDL) were utilized to assess specific cytotoxicity. Cancer cell lines that have survived offer several benefits. They provide a consistent and uninterrupted source of cells, so bypassing any ethical concerns related to the use of human tissue. Additionally, they are cost-effective. The cytotoxicity levels were assessed using the Sulforhodamine B (SRB) colorimetric assay, provided by Santa Cruz Biotechnology, Inc. in Texas, USA. The Spectro Scan 80D UV-VIS spectrophotometer, manufactured by Sedico Ltd. in Nicosia, Cyprus, was employed for this cytotoxicity screening. The cells were co-incubated with substances or a reference agent at various doses ranging from 5 to 200 μg/mL. […] The reduction in cell viability was analyzed by plotting Dose-response curves and expressing the data as a percentage of the control optical density. The IC50 values were obtained using regression analysis.
(Sulforhodamine B stains cellular protein and so reports cell mass.)

In experiment [3] the test system is A549 lung cancer cell line. The experiment can be described thus: SRB cytotoxicity assay, A549. The experiment is classed as cell-based. Conditions: Homo sapiens, 72 h incubation, n = 12, read-out: Cytotoxicity (as of %Control) IC50 value A549 lung malignancy. How it is done:
as §1

Experiment [4] deals with T47D breast cancer cell line. The experiment in a line: SRB cytotoxicity assay, T47D. The experiment is classed as cell-based. The conditions noted are these: Homo sapiens, 72 h incubation, n = 12, read-out: Cytotoxicity (as of %Control) IC50 value T47D mammary malignancy. How it is done: as §1
In experiment [5] the test system is LPS-primed RAW 264.7 murine macrophages (nitrite / iNOS). The experiment in a line: Anti-inflammatory (nitrite) determination in LPS-primed macrophages. The format is cell-based. The conditions noted are these: Mus musculus, RAW264.7; LPS-primed RAW 264.7; nitrite by Griess; 24 h; n = 12; read-out: iNOS- IC50 value. An outline of the steps:
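RAW 264.7 macrophages (2 x 10^5/well) were exposed to LPS (20 μg/mL) together with test compounds at 5–200 μg/mL for 24 h at 37 °C, with indomethacin as positive control. Nitrite in the medium was measured by Griess reaction at 550 nm against a sodium nitrite standard curve. SRB viability testing was run in parallel.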
In general terms: Nitrite, measured by Griess reagent, commonly stands in for NO production.

Experiment [6] relates to cancer cell lines (panel). The experiment can be described thus: SRB cytotoxicity assay, ranges stated over several cancer cell lines. Conditions: Homo sapiens. The format is cell-based. How it is done:
as §1

Setting [7] is: read-out: Trial one (%inhibtion).
Where [8] appears, read: read-out: Trial three (%inhibtion).
Where [9] appears, read: read-out: Trial two (%inhibtion).

Read-outs that look alike come from different tables or passages of the source.

Consider `CC(/C=C/C(=O)NO)=C\[C@@H](C)C(=O)c1ccc(N(C)C)cc1` [Trichostatin A, reference compound], for which the inhibition at 3.125 µM in experiment [1] (setting [7]) stood at 13.2%; in experiment [1] (setting [8]) it was 7.44%; in experiment [1] (setting [9]) it was 2.77%. In addition, the inhibition at 6.25 µM turned out to be 22.3% in experiment [1] (setting [7]), 14.2% in experiment [1] (setting [8]) and 16.5% in experiment [1] (setting [9]). Also, the inhibition at 12.5 µM in experiment [1] (setting [7]) is 29.4%; in experiment [1] (setting [8]), 24.7%; in experiment [1] (setting [9]) it was 25%. The values for the inhibition at 25 µM in experiment [1] (setting [7]), in experiment [1] (setting [8]) and in experiment [1] (setting [9]) were 39.7%, 33.7% and 38.4%, respectively. Besides, the inhibition at 50 µM stood at 52.1% in experiment [1] (setting [7]), 38.8% in experiment [1] (setting [8]) and 51.1% in experiment [1] (setting [9]). Further, the “Maximum (descriptive statistics of enzyme inhibition)” value in experiment [1] stood at 47.33. Moreover, the IC50 in experiment [1] is 43.5 ± 15.6 µM; in experiment [2] it was 19.5 µM; in experiment [3], 2 ± 0.21 µM; in experiment [4] it was 14.7 ± 0.28 µM; in experiment [5], 1.69 ± 0.12 µM; in experiment [6] (Pancreatic cancer cell, after 72 hours of incubation, read-out: IC50, colorectal and pancreatic cancer cells), ≤ 27 µM. For the same compound, the IC50 was 1.4 to 14.7 µM in experiment [6] (A375, A549, PC3, MCF7, T47D, HeLa, read-out: IC50 range, decreases in viability in other cancer cell cultures); 14 to 27 µM in experiment [6] (CACO2, HCT116, SW620, HT29, read-out: IC50 range, anti-proliferation in colorectal cancer cells); < 10 µM in experiment [6] (Table 3 cell lines, read-out: IC50, skin melanoma, lung carcinoma, mammary and cervix adenocarcinomas). Further, the “Minimum (descriptive statistics of enzyme inhibition)” value in experiment [1] is recorded as 7.808.

In the case of `O=c1cc(O)cc(/C=C/c2ccc(O)c(O)c2)o1` [Hispidin], the inhibition at 3.125 µM in experiment [1] (setting [7]) was found to be 10.9%; in experiment [1] (setting [8]) it was 20.2%; in experiment [1] (setting [9]) it was 4.72%. In addition, the inhibition at 6.25 µM turned out to be 19.1% in experiment [1] (setting [7]), 24% in experiment [1] (setting [8]) and 10% in experiment [1] (setting [9]). Also, the inhibition at 12.5 µM in experiment [1] (setting [7]) was 29.5%; in experiment [1] (setting [8]), 34.3%; in experiment [1] (setting [9]), 19.2%. The values for the inhibition at 25 µM in experiment [1] (setting [7]), in experiment [1] (setting [8]) and in experiment [1] (setting [9]) were 47.9%, 43.5% and 32.4%, respectively. In addition, the inhibition at 50 µM in experiment [1] (setting [7]) is 53.5%; in experiment [1] (setting [8]) it was 54.5%; in experiment [1] (setting [9]), 44.3%. Further, the “Maximum (descriptive statistics of enzyme inhibition)” value in experiment [1] stood at 50.76. Also, the IC50 in experiment [1] stood at 36.4 ± 16.1 µM; in experiment [2], 34.3 ± 6.52 µM; in experiment [3] it was 26 ± 5.22 µM; in experiment [4], 52.6 ± 0.69 µM; in experiment [5] it was 3.47 ± 0.49 µM. In experiment [1], the “Minimum (descriptive statistics of enzyme inhibition)” value is recorded as 11.95.

For the origin of these results see PMC12527173, “Cytotoxic, anti-inflammatory, antioxidant, and anti-glyoxalase-I evaluation of chelating substances: In silico and in vitro study” (PLOS One, 2025).
